Earlier results in US8758840B2, “Method of treating areas of osteoarthritis in animals and human beings with milkweed seed oil” (Natural Fibers Corporation, priority 2011, dated 2014).

System: pro-inflammatory and matrix degradation mediators involved in osteoarthritis-induced cartilage degradation
Details: laboratory tests, Gabay et al. 2010

CC[C@H](/C=C/[C@@H](C)[C@H]1CC[C@H]2[C@@H]3CC=C4C[C@@H](O)CC[C@]4(C)[C@H]3CC[C@]12C)C(C)C [stigmasterol]
effect on pro-inflammatory and matrix degradation mediators: inhibits several pro-inflammatory and matrix degradation mediators
